From patent publication US20220395553A1, “CXCR4 ANTAGONIST PEPTIDES” (COHBAR, INC., priority 2019, published 2022)
Square brackets hold non-standard residues; d marks the D form. Peptide text beside a SMILES is read from it.

Assays:
[1] = test system: 3T3-L1 Mouse Adipocytes; assay: Free fatty acid levels in cultured mouse adipocytes; assay type: cell-based; settings: peptide 10 μM, 20-22 hours then 3 hours with 1 nM isoproterenol; relative to isoproterenol treated cells
Experimental: The effect of the peptides on fatty acid metabolism can be assessed using an assay of free fatty acid levels in cultured cells such as mouse adipocytes. Peptides were initially prepared as 10 mM stock in DMSO and used at a final concentration of 10 μM (0.1% DMSO). […] Mouse 3T3-L1 cells purchased from ZenBio were seeded at 3,000 cells per well in 96-well plates in Pre-adipocyte Medium (Zen-Bio) and grown to confluence at 37° C. in a humidified atmosphere of 5% CO2/95% air. Two days after confluence, cells were placed in Adipocyte Differentiation Medium (Zen-Bio) and cultured for three additional days at 37° C. in a humidified atmosphere of 5% CO2/95% air. The culture media was then replaced with Adipocyte Maintenance Medium (Zen-Bio) and the cells maintained for an additional 9-12 days at 37° C. in a humidified atmosphere of 5% CO2/95% air with partial medium replacement every other day. Following 12-15 days of differentiation, test peptides were added at a final concentration of 10 μM in 0.1% DMSO and incubated for 20-22 hours in Adipocyte Maintenance Medium at 37° C. in a humidified atmosphere of 5% CO2/95% air. After 20-22 hours, 1 nM isoproterenol was added to all wells except untreated controls and test peptides were replenished. Insulin at 100 nM was added to control wells. Cells were incubated for 3 hours in Assay Buffer (Zen-Bio) at 37° C. in a humidified atmosphere of 5% CO2/95% air. Free fatty acid concentrations in the media were determined using a Free Fatty Acid Assay kit (Zen-Bio) according to the manufacturer's instructions using a Cytation 3 plate reader at 540 nm (BioTek, Winooski, Vt.). Absorbance values were corrected for untreated background and expressed relative to isoproterenol treated cells. Treatment with isoproterenol (1 nM) alone was used as the free fatty acid level stimulatory control. The relative standard deviation of the isoproterenol control was <10%. […] Free fatty acid levels for insulin (100 nM) treatment were <5% of the isoproterenol control value.

[2] = test system: Rat H-4-II-E Cells; assay: Cell proliferation, BrdU incorporation; assay type: cell-based; settings: peptide 10 μM, 18-20 hours, relative to 0.1% DMSO control
Experimental: The effect of the peptides on cell proliferation can be assessed using an assay of BrdU incorporation in cultured cells. Peptides were initially prepared as 10 mM stock in DMSO and tested at a final concentration of 10 μM (0.1% DMSO). BrdU Cell Proliferation Assay kit was purchased from Cell Signaling Technology. H-4-II-E rat liver hepatoma cell line was purchased from American Type Culture Collection (Manassas, Va.). H-4-II-E cells were grown in DMEM supplemented with 10% FBS with 100 IU/ml penicillin and 100 μg/ml streptomycin. Cultures were maintained at 37° C. in a humidified atmosphere of 5% CO2/95% air. H-4-II-E cells were seeded at 20,000 cells per well on 96-well plates. The next day cells were incubated with test peptides at 10 μM in 0.1% DMSO and maintained at 37° C. in a humidified atmosphere of 5% CO2/95% air for 18-20 hours. Cell proliferation was determined using a BrdU Cell Proliferation Assay kit (Cell Signaling Technology) according to the manufacturer's instructions. Absorption for each sample well on the plate was measured using a Cytation 3 plate reader at 450 nm (BioTek, Winooski, Vt.). Activity was calculated relative to 0.1% DMSO untreated control.

[3] = target: human CXCR4 (Homo sapiens, UniProt P61073); assay: IC50 for inhibition of CXCR4 activation, β-Arrestin recruitment (Example 22); assay type: cell-based; parameters: host or cells: C2C12 (mouse myoblast) CXCR4 β-Arrestin PathHunter cell line
human CXCR4, sequence (P61073 whole entry, the tested form may be a part): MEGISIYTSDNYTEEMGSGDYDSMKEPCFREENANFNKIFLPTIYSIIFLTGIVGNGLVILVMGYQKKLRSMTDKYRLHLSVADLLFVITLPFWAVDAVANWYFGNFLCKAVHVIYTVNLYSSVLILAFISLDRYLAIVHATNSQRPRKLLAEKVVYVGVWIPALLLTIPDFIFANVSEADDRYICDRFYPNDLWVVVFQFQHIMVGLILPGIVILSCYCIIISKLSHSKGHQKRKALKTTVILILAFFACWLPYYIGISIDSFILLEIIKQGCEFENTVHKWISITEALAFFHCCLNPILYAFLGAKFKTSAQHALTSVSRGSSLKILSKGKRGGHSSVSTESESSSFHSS
Outline: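 C2C12 cells co-expressing ProLink-tagged human CXCR4 and Enzyme Acceptor-tagged β-arrestin (PathHunter). Peptides tested in 10-point, 3-fold dilutions from 1 μM (1 μM–0.05 nM). Recruitment read by chemiluminescent enzyme-fragment complementation after 90 min incubation.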

[4] = test system: SH-SY5Y Neuroblastoma Cells; assay: ATP levels in cells exposed to staurosporine; assay type: cell-based, human; settings: peptide 10 μM plus staurosporine, 18-20 hours; <100% cytoprotective, >100% synergistic
Experimental: Peptides were initially prepared as 10 mM stock in DMSO and tested at a final concentration of 10 μM (0.1% DMSO).
[…] CellTiter-Glo® Assay kit was purchased from Promega. SH-SY5Y human neuroblastoma cell line was purchased from American Type Culture Collection (Manassas, Va.) and licensed from Memorial Sloan-Kettering Cancer Center (New York, N.Y.). SH-SY5Y cells were grown in DMEM/F12 medium supplemented with 10% FBS with 100 IU/ml penicillin and 100 μg/ml streptomycin. Cultures were maintained at 37° C. in a humidified atmosphere of 5% CO2/95% air. SH-SY5Y cells were seeded at 30,000 cells per well on 96-well plates. […] ATP levels were determined using a CellTiter-Glo Assay kit (Promega) according to the manufacturer's instructions. Luminescence for each sample well on the plate was measured using a Cytation 3 plate reader (BioTek, Winooski, Vt.). […] A value less than 100% is indicative of a cytoprotective effect, while a value greater than 100% is indicative of a synergistic effect on viability.

Compound | Free Fatty Acid Levels, MEAN % ISO [1] [%] | BrdU Incorporation, Percent of Control [2] [%] | IC50 [3] [nM] | Percent of ATP Reduction Induced by Control [4] [%]
CSCC[C@H](N)C(=O)N[C@@H](CC(C)C)C(=O)N[C@@H](CCCNC(=N)N)C(=O)N[C@@H](CCCNC(=N)N)C(=O)N[C@@H](Cc1ccc(O)cc1)C(=O)N[C@@H](Cc1c[nH]cn1)C(=O)N[C@@H](Cc1c[nH]cn1)C(=O)N[C@@H](CO)C(=O)N[C@H](C(=O)N[C@@H](CCCNC(=N)N)C(=O)N[C@@H](CO)C(=O)N[C@@H](CO)C(=O)N[C@@H](CC(C)C)C(=O)N[C@@H](CCCNC(=N)N)C(=O)N1CCC[C@H]1C(=O)N[C@@H](Cc1ccc(O)cc1)C(=O)N[C@H](C(=O)N[C@@H](CCCCN)C(=O)O)[C@@H](C)O)C(C)C [compound 2] (H-MLRRYHHSVRSSLRPYTK-OH; N-terminus and C-terminus assumed) | 83.2 | 123.6 | 11 | 84.5
CC(C)C[C@H](NC(=O)[C@H](CO)NC(=O)[C@H](CO)NC(=O)[C@H](CCCNC(=N)N)NC(=O)[C@@H](NC(=O)[C@H](CO)NC(=O)[C@H](Cc1c[nH]cn1)NC(=O)[C@H](Cc1c[nH]cn1)NC(=O)[C@H](Cc1ccc(O)cc1)NC(=O)[C@H](CCCNC(=N)N)NC(=O)[C@H](CCCNC(=N)N)NC(=O)[C@@H](N)CC(C)C)C(C)C)C(=O)N[C@@H](CCCNC(=N)N)C(=O)N1CCC[C@H]1C(=O)N[C@@H](Cc1ccc(O)cc1)C(=O)N[C@H](C(=O)N[C@@H](CCCCN)C(=O)O)[C@@H](C)O [compound 3] (H-LRRYHHSVRSSLRPYTK-OH; N-terminus and C-terminus assumed) | 82.0 | 130.3 | 5 | 84.9
CC(C)C[C@H](NC(=O)[C@H](CO)NC(=O)[C@H](CO)NC(=O)[C@H](CCCNC(=N)N)NC(=O)[C@@H](NC(=O)[C@H](CO)NC(=O)[C@H](Cc1c[nH]cn1)NC(=O)[C@H](Cc1c[nH]cn1)NC(=O)[C@H](Cc1ccc(O)cc1)NC(=O)[C@H](CCCNC(=N)N)NC(=O)[C@H](CCC(=O)O)NC(=O)[C@@H](N)CC(C)C)C(C)C)C(=O)N[C@@H](CCCNC(=N)N)C(=O)N1CCC[C@H]1C(=O)N[C@@H](Cc1ccc(O)cc1)C(=O)N[C@H](C(=O)N[C@@H](CCCCN)C(=O)O)[C@@H](C)O [compound 4] (H-LERYHHSVRSSLRPYTK-OH; N-terminus and C-terminus assumed) | 92.3 | 114.4 | 4 | 77.1
CC(C)C[C@H](NC(=O)[C@H](CO)NC(=O)[C@H](CO)NC(=O)[C@H](CCCNC(=N)N)NC(=O)[C@@H](C)NC(=O)[C@H](CO)NC(=O)[C@H](Cc1c[nH]cn1)NC(=O)[C@H](Cc1c[nH]cn1)NC(=O)[C@H](Cc1ccc(O)cc1)NC(=O)[C@H](CCCNC(=N)N)NC(=O)[C@H](CCC(=O)O)NC(=O)[C@@H](N)CC(C)C)C(=O)N[C@@H](CCCNC(=N)N)C(=O)N1CCC[C@H]1C(=O)N[C@@H](Cc1ccc(O)cc1)C(=O)N[C@H](C(=O)O)[C@@H](C)O [compound 5] (H-LERYHHS[dA]RSSLRPYT-OH; N-terminus and C-terminus assumed) | 86.9 | 131.1 |  | 80.0
